Molecular target: CREBBP (Homo sapiens (Human), UniProt Q92793)
Assay: In vitro enzyme inhibition assay - CREBBP inhibition (AlphaScreen, biotinylated H4-tetraacetyl peptide)
Format: binding
Settings: Table 28; AlphaScreen, H4-tetraacetyl peptide
Procedure, shortened: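 His-tagged CREBBP expressed in E. coli (50 nM final) incubated with biotinylated H4K5/8/12/16(Ac) peptide (20 nM final) in HEPES pH 7.3 buffer, 0.4% DMSO, 20 min at room temperature.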

CREBBP, sequence (Q92793 1081-1197): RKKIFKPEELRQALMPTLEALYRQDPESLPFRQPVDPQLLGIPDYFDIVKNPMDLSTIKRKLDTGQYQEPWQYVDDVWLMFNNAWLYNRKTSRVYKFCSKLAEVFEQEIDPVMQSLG

SMILES	IC50
Cc1cc(-c2cc(S(C)(=O)=O)nc(Oc3ccc(F)cc3F)n2)cn(C)c1=O [Example 132, 5-[2-(2,4-Difluoro-phenoxy)-6-methanesulfonyl-pyrimidin-4-yl]-1,3-dimethyl-1H-pyridin-2-one]	< 500 nM
Cc1cccc(Cl)c1Oc1nc(-c2cc(C)c(=O)n(C)c2)cc(S(C)(=O)=O)n1 [Example 133, 5-[2-(2-Chloro-6-methyl-phenoxy)-6-methanesulfonyl-pyrimidin-4-yl]-1,3-dimethyl-1H-pyridin-2-one]	< 500 nM
Cc1cc(-c2cc(S(=O)(=O)C(C)C)nc(Oc3ccc(F)cc3F)n2)cn(C)c1=O [Example 134, 5-[2-(2,4-Difluoro-phenoxy)-6-(propane-2-sulfonyl)-pyrimidin-4-yl]-1,3-dimethyl-1H-pyridin-2-one]	< 500 nM
Cc1cccc(Cl)c1Oc1nc(-c2cc(C)c(=O)n(C)c2)cc(S(=O)(=O)C(C)C)n1 [Example 135, 5-[2-(2-Chloro-6-methyl-phenoxy)-6-(propane-2-sulfonyl)-pyrimidin-4-yl]-1,3-dimethyl-1H-pyridin-2-one]	< 500 nM
Cc1cccc(F)c1Oc1nc(NS(=O)(=O)CCCF)cc(-c2ccc(=O)n(C)c2)n1 [Example 136, 3-Fluoro-propane-1-sulfonic acid [2-(2-fluoro-6-methyl-phenoxy)-6-(1-methyl-6-oxo-1,6-dihydro-pyridin-3-yl)-pyrimidin-4-yl]-amide]	< 500 nM
CCC(C)S(=O)(=O)Nc1cc(-c2ccc(=O)n(C)c2)nc(Oc2c(C)cccc2F)n1 (centres unmarked) [Example 137, Butane-2-sulfonic acid [2-(2-fluoro-6-methyl-phenoxy)-6-(1-methyl-6-oxo-1,6-dihydro-pyridin-3-yl)-pyrimidin-4-yl]-amide]	< 500 nM
CCCCS(=O)(=O)Nc1cc(-c2cc(C)c(=O)n(C)c2)nc(Oc2c(F)cccc2Cl)n1 [Example 138, Butane-1-sulfonic acid [2-(2-chloro-6-fluoro-phenoxy)-6-(1,5-dimethyl-6-oxo-1,6-dihydro-pyridin-3-yl)-pyrimidin-4-yl]-amide]	< 500 nM
CCCCS(=O)(=O)Nc1cc(-c2ccc(=O)n(C)c2)nc(Oc2c(F)cccc2Cl)n1 [Example 139, Butane-1-sulfonic acid [2-(2-chloro-6-fluoro-phenoxy)-6-(1-methyl-6-oxo-1,6-dihydro-pyridin-3-yl)-pyrimidin-4-yl]-amide]	< 500 nM
CCS(=O)(=O)Nc1cc(-c2cc(C)c(=O)n(C)c2)nc(OC(C)C)n1 [Example 140, Ethanesulfonic acid [6-(1,5-dimethyl-6-oxo-1,6-dihydro-pyridin-3-yl)-2-isopropoxy-pyrimidin-4-yl]-amide]	< 500 nM
CCCS(=O)(=O)Nc1cc(-c2cc(C)c(=O)n(C)c2)nc(Oc2c(F)cccc2Cl)n1 [Example 141, Propane-1-sulfonic acid [2-(2-chloro-6-fluoro-phenoxy)-6-(1,5-dimethyl-6-oxo-1,6-dihydro-pyridin-3-yl)-pyrimidin-4-yl]-amide]	< 500 nM
Cc1cc(-c2cc(NS(=O)(=O)C(C)C)nc(Oc3c(F)cccc3Cl)n2)cn(C)c1=O [Example 142, Propane-2-sulfonic acid [2-(2-chloro-6-fluoro-phenoxy)-6-(1,5-dimethyl-6-oxo-1,6-dihydro-pyridin-3-yl)-pyrimidin-4-yl]-amide]	< 500 nM
CCCS(=O)(=O)Nc1cc(-c2ccc(=O)n(C)c2)nc(Oc2c(F)cccc2Cl)n1 [Example 143, Propane-1-sulfonic acid [2-(2-chloro-6-fluoro-phenoxy)-6-(1-methyl-6-oxo-1,6-dihydro-pyridin-3-yl)-pyrimidin-4-yl]-amdie]	< 500 nM
CC(C)S(=O)(=O)Nc1cc(-c2ccc(=O)n(C)c2)nc(Oc2c(F)cccc2Cl)n1 [Example 144, Propane-2-sulfonic acid [2-(2-chloro-6-fluoro-phenoxy)-6-(1-methyl-6-oxo-1,6-dihydro-pyridin-3-yl)-pyrimidin-4-yl]-amide]	< 500 nM
Cc1cccc(F)c1Oc1nc(NS(=O)(=O)CCCC(F)(F)F)cc(-c2ccc(=O)n(C)c2)n1 [Example 146, 4,4,4-Trifluoro-butane-1-sulfonic acid [2-(2-fluoro-6-methyl-phenoxy)-6-(1-methyl-6-oxo-1,6-dihydro-pyridin-3-yl)-pyrimidin-4-yl]-amide]	< 500 nM
CCS(=O)(=O)Nc1cc(-c2cc(C)c(=O)n(C)c2)nc(OC(C)c2ccccc2)n1 (centres unmarked) [Example 147, Ethanesulfonic acid [6-(1,5-dimethyl-6-oxo-1,6-dihydro-pyridin-3-yl)-2-(1-phenyl-ethoxy)-pyrimidin-4-yl]-amide]	< 500 nM
Cn1cc(-c2cc(NS(=O)(=O)CCCF)nc(Oc3c(F)cccc3Cl)n2)ccc1=O [Example 148, N-(2-(2-chloro-6-fluorophenoxy)-6-(1-methyl-6-oxo-1,6-dihydropyridin-3 yl)pyrimidin-4-yl)-3-fluoropropane-1-sulfonamide]	< 500 nM

SMILES	IC50
Cc1cccc(C#N)c1Oc1nc(NS(=O)(=O)CCC(F)(F)F)cc(-c2ccc(=O)n(C)c2)n1 [Example 149, N-(2-(2-cyano-6-methylphenoxy)-6-(1-methyl-6-oxo-1,6-dihydropyridin-3-yl)pyrimidin-4-yl)-3,3,3-trifluoropropane-1-sulfonamide]	< 500 nM
Cc1cccc(C#N)c1Oc1nc(NS(=O)(=O)CCCC(F)(F)F)cc(-c2ccc(=O)n(C)c2)n1 [Example 150, N-(2-(2-cyano-6-methylphenoxy)-6-(1-methyl-6-oxo-1,6-dihdyropyridin-3-yl)pyrimidin-4-yl)-4,4,4-trifluorobutane-1-sulfonamide]	< 500 nM
CCS(=O)(=O)Nc1cc(-c2cc(C)c(=O)n(C)c2)nc(OCC(F)(F)F)n1 [Example 151, N-(6-(1,5-dimehtyl-6-oxo-1,6-dihydropyridin-3-yl)-2-(2,2,2-trifluoroethoxy)pyrimidin-4-yl)ethanesulfonamide]	< 500 nM
Cc1cc(-c2cc(NS(=O)(=O)C(C)C)nc(OCC(C)C)n2)cn(C)c1=O [Example 152, N-(6-(1,5-dimethyl-6-oxo-1,6-dihydropyridin-3-yl)-2-isobutoxypyrimidin-4-yl)propane-2-sulfonamide]	< 500 nM
CCS(=O)(=O)Nc1nc(Oc2c(C)cccc2C)nc(-c2cc(C)c(=O)n(C)c2)n1 [Example 153, Ethanesulfonic acid [4-(1,5-dimethyl-6-oxo-1,6-dihydro-pyridin-3-yl)-6-(2,6-dimethyl-phenoxy)-[1,3,5]triazin-2-yl]-amide]	< 500 nM
CCCS(=O)(=O)Nc1nc(Oc2c(C)cccc2C)nc(-c2cc(C)c(=O)n(C)c2)n1 [Example 154, Propane-1-sulfonic acid [4-(1,5-dimethyl-6-oxo-1,6-dihydro-pyridin-3-yl)-6-(2,6-dimethyl-phenoxy)-[1,3,5]triazin-2-yl]-amide]	< 500 nM
Cc1cccc(C)c1Oc1nc(NS(=O)(=O)C(C)C)nc(-c2cc(C)c(=O)n(C)c2)n1 [Example 155, Propane-2-sulfonic acid [4-(1,5-dimethyl-6-oxo-1,6-dihydro-pyridin-3-yl)-6-(2,6-dimethyl-phenoxy)-[1,3,5]triazin-2-yl]-amide]	< 500 nM
CCCS(=O)(=O)Nc1cc(-c2cc(C)c(=O)n(C)c2)nc(-c2ccccc2)n1 [Example 156, N-(6-(1,5-dimethyl-6-oxo-1,6-dihydropyridin-3-yl)-2-phenylpyrimidin-4-yl)propane-1-sulfonamide]	500 to 5000 nM
CCCCS(=O)(=O)Nc1cc(-c2c[nH]c(=O)c(C)c2)nc(Oc2c(C)cccc2Cl)n1 [Example 157, Butane-1-sulfonic acid [2-(2-chloro-6-methyl-phenoxy)-6-(5-methyl-6-oxo-1,6-dihydro-pyridin-3-yl)-pyrimidin-4-yl]-amide]	< 500 nM
Cc1cccc(Cl)c1Oc1nc(NS(=O)(=O)C(C)C)cc(-c2c[nH]c(=O)c(C)c2)n1 [Example 158, Propane-2-sulfonic acid [2-(2-chloro-6-methyl-phenoxy)-6-(5-methyl-6-oxo-1,6-dihydro-pyridin-3-yl)-pyrimidin-4-yl]-amide]	< 500 nM
CCS(=O)(=O)Nc1nc(Oc2c(C)cccc2F)nc(-c2cc(C)c(=O)n(C)c2)c1C [Example 159, Ethane-2-sulfonic acid [6-(1,5-dimethyl-6-oxo-1,6-dihydro-pyridin-3-yl)-2-(2-fluoro-6-methyl-phenoxy)-5-methyl-pyrimidin-4-yl]-amide]	< 500 nM
CCS(=O)(=O)Nc1nc(Oc2c(C)cccc2C)nc(-c2cc(C)c(=O)n(C)c2)c1C [Example 160, Ethanesulfonic acid [6-(1,5-dimethyl-6-oxo-1,6-dihydro-pyridin-3-yl)-2-(2,6-dimethyl-phenoxy)-5-methyl-pyrimidin-4-yl]-amide]	< 500 nM
CCCS(=O)(=O)Nc1nc(Oc2c(C)cccc2F)nc(-c2cc(C)c(=O)n(C)c2)c1C [Example 161, Propane-1-sulfonic acid [6-(1,5-dimethyl-6-oxo-1,6-dihydro-pyridin-3-yl)-2-(2-fluoro-6-methyl-phenoxy)-5-methyl-pyrimidin-4-yl]-amide]	< 500 nM
Cc1cccc(F)c1Oc1nc(NS(=O)(=O)C(C)C)c(C)c(-c2cc(C)c(=O)n(C)c2)n1 [Example 162, Propane-2-sulfonic acid [6-(1,5-dimethyl-6-oxo-1,6-dihydro-pyridin-3-yl)-2-(2-fluoro-6-methyl-phenoxy)-5-methyl-pyrimidin-4-yl]-amide]	< 500 nM
Cc1cccc(C)c1Oc1nc(NS(=O)(=O)C(C)C)c(C)c(-c2cc(C)c(=O)n(C)c2)n1 [Example 163, Propane-2-sulfonic acid [6-(1,5-dimethyl-6-oxo-1,6-dihydro-pyridin-3-yl)-2-(2,6-dimethyl-phenoxy)-5-methyl-pyrimidin-4-yl]-amide]	< 500 nM
CCCS(=O)(=O)Nc1nc(Oc2c(C)cccc2C)nc(-c2cc(C)c(=O)n(C)c2)c1C [Example 164, Propane-1-sulfonic acid [6-(1,5-dimethyl-6-oxo-1,6-dihydro-pyridin-3-yl)-2-(2,6-dimethyl-phenoxy)-5-methyl-pyrimidin-4-yl]-amide]	< 500 nM

— patent publication US10202360B2 (CELGENE QUANTICEL RESEARCH, INC., priority 2016, dated 2019)
